Experimental data as given in the supplement of paper PMC4862054.

Assays:
Conditions in all cases: incubation time: 72 h
[1] = system: CAL-120; assay: normalised response (% of control), CellTox Green; higher = less cell death (100 = DMSO, 0 = benzethonium chloride kill control)
Outline: (§1)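 Normalised signals at single concentrations make up the values. They come from breast cancer cell lines seeded (20 µl suspension) into 384-well plates with compound at 5 concentrations in 10-fold steps over a compound-specific 10,000-fold range, incubated 72 h, and read for CellTox Green fluorescence then CellTiter-Glo luminescence. Each plate was normalised to 0.1 % DMSO (100) and a positive kill control (0).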

[2] = system: MDA-MB-436; assay: as above
Outline: as §1

[3] = system: MFM-223; assay: as above
Outline: as §1

[4] = system: HCC1143; assay: as above
Outline: as §1

[5] = system: MDA-MB-453; assay: as above
Outline: as §1

[6] = system: HCC1937; assay: as above
Outline: as §1

[7] = system: CAL-51; assay: as above
Outline: as §1

[8] = system: BT-474; assay: as above
Outline: as §1

[9] = system: DU-4475; assay: as above
Outline: as §1

[10] = system: Hs578T; assay: as above
Outline: as §1

[11] = system: MCF-10A; assay: as above
Outline: as §1

[12] = system: MDA-MB-231; assay: as above
Outline: as §1

[13] = system: MDA-MB-468; assay: as above
Outline: as §1

[14] = system: HCC1599; assay: as above
Outline: as §1

[15] = system: CAL-85-1; assay: as above
Outline: as §1

[16] = system: CAL-148; assay: as above
Outline: as §1

[17] = system: BT-549; assay: as above
Outline: as §1

[18] = system: HDQ-P1; assay: as above
Outline: as §1

[19] = system: CAL-120; assay: normalised response (% of control), CellTiter-Glo; higher = more viable cells (100 = DMSO, 0 = benzethonium chloride kill control)
Protocol: (§2)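 DSRT, 72 h incubation, CellTox Green / CellTiter-Glo readout. Signal is normalised to DMSO and benzethonium chloride controls. Value is the normalised response at dose 3.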

[20] = system: MDA-MB-436; assay: as above
Protocol: as §2

[21] = system: MFM-223; assay: as above
Protocol: as §2

[22] = system: HCC1143; assay: as above
Protocol: as §2

[23] = system: MDA-MB-453; assay: as above
Protocol: as §2

[24] = system: HCC1937; assay: as above
Protocol: as §2

[25] = system: CAL-51; assay: as above
Protocol: as §2

[26] = system: BT-474; assay: as above
Protocol: as §2

[27] = system: DU-4475; assay: as above
Protocol: as §2

[28] = system: Hs578T; assay: as above
Protocol: as §2

[29] = system: MCF-10A; assay: as above
Protocol: as §2

[30] = system: MDA-MB-231; assay: as above
Protocol: as §2

[31] = system: MDA-MB-468; assay: as above
Protocol: as §2

[32] = system: HCC1599; assay: as above
Protocol: as §2

[33] = system: SK-BR-3; assay: as above
Protocol: as §2

[34] = system: CAL-85-1; assay: as above
Protocol: as §2

[35] = system: CAL-148; assay: as above
Protocol: as §2

[36] = system: BT-549; assay: as above
Protocol: as §2

[37] = system: HDQ-P1; assay: as above
Protocol: as §2

SMILES	normalised response [1] [%]	normalised response [2] [%]	normalised response [3] [%]	normalised response [4] [%]	normalised response [5] [%]	normalised response [6] [%]	normalised response [7] [%]	normalised response [8] [%]	normalised response [9] [%]	normalised response [10] [%]	normalised response [11] [%]	normalised response [12] [%]	normalised response [13] [%]	normalised response [14] [%]	normalised response [15] [%]	normalised response [16] [%]	normalised response [17] [%]	normalised response [18] [%]	normalised response [19] [%]	normalised response [20] [%]	normalised response [21] [%]	normalised response [22] [%]	normalised response [23] [%]	normalised response [24] [%]	normalised response [25] [%]	normalised response [26] [%]	normalised response [27] [%]	normalised response [28] [%]	normalised response [29] [%]	normalised response [30] [%]	normalised response [31] [%]	normalised response [32] [%]	normalised response [33] [%]	normalised response [34] [%]	normalised response [35] [%]	normalised response [36] [%]	normalised response [37] [%]
COc1cc(Nc2ncc3c(n2)-c2ccc(Cl)cc2C(c2c(F)cccc2OC)=NC3)ccc1C(=O)O [Alisertib] (100 nM)	92.8	68.9	97	75	93.9	85.9	27.8	91.7	89.9	-59.3	68.7	69.8	18.6	92.3	77.7	90.1	96.1	101	78.1	67.6	76.3	71.2	62	82.8	69.1	77.2	67	74.2	81.2	84	33.2	80.3	67.9	63.7	102	73.2	87
Cc1ccc(F)c(NC(=O)Nc2ccc(-c3cccc4[nH]nc(N)c34)cc2)c1 [Linifanib] (10 nM)	99.2	72.8	108	108	108	104	109	99.7	102	87	56.1	91.7	121	111	97.2	108	96.7	112	102	108	106	107	97.2	99.5	102	107	105	105	110	111	106	108	103	92.7	112	96.7	97.3
Clc1ccc(C(c2ccccc2Cl)C(Cl)Cl)cc1 (configuration not stated) [Mitotane] (100 nM)	92	88.1	77.9	92.2	106	95	101	100	97.9	91.4	78.6	95.5	120	100	105	101	94.6	95.8	97.8	97.8	95.6	100	95.5	95.4	94.8	94	97.2	95.3	92.2	98.7	92.9	93.7	97.7	101	96.2	99.6	102
Nc1ccn([C@@H]2O[C@H](CO)[C@@H](O)[C@@H]2O)c(=O)n1 [Cytarabine] (100 nM)	109	81.4	102	99.4	108	–	88.1	104	112	106	102	115	103	111	103	75.5	113	101	101	95.1	95.3	98.8	141	98.9	85.8	97.3	90.4	96.7	110	99	94.6	88.6	80.1	96.5	74.7	94	96.7
